For one assay, the target named is BIR3 domain of XIAP (Homo sapiens (Human), UniProt P98170). The experiment in a line: TR-FRET assay for BIR3 (inhibition of binding of XIAP BIR3 domain to SMAC-derived Peptide A). The following applies: 6x His-tagged BIR3 domain (aa 241-356 of XIAP) 10 nM, Peptide A 20 nM, TR-FRET.
A further assay has as its target BIR2 domain of XIAP (Homo sapiens (Human), UniProt P98170, C202A/C213G). The experiment in a line: TR-FRET assay for BIR2 (inhibition of binding of XIAP BIR2 domain to SMAC-derived Peptide A). (In general: Time-resolved FRET reads energy transfer from a long-lived donor to a nearby acceptor.)
[1] abbreviates: 6x His-tagged BIR2 domain (aa 124-240 of XIAP) 10 nM, Peptide A 20 nM, TR-FRET, read-out: IC50 BIR2.

Results on 23 compounds are retold here after US10053431B2, “Tetrahydro-benzodiazepinones” (priority 2013, dated 2018).

Structures can show the parent of a compound that is named as a salt. Where two headings read alike, the source gives them in different places.

As usually defined, the IC50 is the point on the concentration scale where inhibition reaches its midpoint.

Sequence of BIR2 domain of XIAP (P98170 124-240 with tags or gaps C202A/C213G limits assumed): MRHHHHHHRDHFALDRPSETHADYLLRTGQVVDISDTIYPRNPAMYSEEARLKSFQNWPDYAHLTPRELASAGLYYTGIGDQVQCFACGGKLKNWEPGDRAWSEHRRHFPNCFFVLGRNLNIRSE
Sequence of BIR3 domain of XIAP (P98170 241-356 with tags or gaps limits assumed): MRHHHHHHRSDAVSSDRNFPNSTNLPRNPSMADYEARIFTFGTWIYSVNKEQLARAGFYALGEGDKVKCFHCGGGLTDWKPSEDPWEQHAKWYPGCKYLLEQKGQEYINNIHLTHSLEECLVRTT

Take `CN[C@@H](C)C(=O)N[C@H]1CN(S(C)(=O)=O)c2ccccc2N(Cc2c(C)ccc3ccccc23)C1=O` [Example 19, (S)—N—[(S)-5-methanesulfonyl-1-(2-methyl-naphthalen-1-ylmethyl)-2-oxo-2,3,4,5-tetrahydro-1H-benzo[b][1,4]diazepin-3-yl]-2-methylamino-propionamide hydrochloride]: the results for the IC50 at BIR3 domain of XIAP and at BIR2 domain of XIAP (setting [1]) were greater than 54800 nM and 620 nM, respectively.

Take `CN[C@@H](C)C(=O)N[C@H]1CN(C(=O)CCCNC(=O)OCC2c3ccccc3-c3ccccc32)c2ccccc2N(Cc2c(OC)ccc3cc(C(=O)OC)ccc23)C1=O` [Example 48, 5-[(S)-5-[4-(9H-Fluoren-9-ylmethoxycarbonylamino)-butyryl]-3-((S)-2-methylamino-propionylamino)-2-oxo-2,3,4,5-tetrahydro-benzo[b][1,4]diazepin-1-ylmethyl]-6-methoxy-naphthalene-2-carboxylic acid methyl ester hydrochloride]: the IC50 on BIR3 domain of XIAP was 33200 nM; at BIR2 domain of XIAP (setting [1]), 23 nM.

For `CN[C@@H](C)C(=O)N[C@H]1CN(C(=O)c2ccc(C(F)(F)F)cc2)c2ccccc2N(Cc2c(OC)ccc3cc(Br)ccc23)C1=O` [Example 91d], the half-inhibitory concentration (IC50) is greater than 54800 nM on BIR3 domain of XIAP and 18 nM on BIR2 domain of XIAP (setting [1]).

With `CN[C@@H](C)C(=O)N[C@H]1CN(C(=O)c2ccc(N)cc2)c2ccccc2N(Cc2c(OCCF)ccc3ccccc23)C1=O` [Example 178, (2S)-N-[(3S)-1-(4-aminobenzoyl)-5-[[2-(2-fluoroethoxy)naphthalen-1-yl]methyl]-4-oxo-2,3-dihydro-1,5-benzodiazepin-3-yl]-2-(methylamino)propanamide;hydrochloride], the IC50 on BIR3 domain of XIAP is 16100 nM; on BIR2 domain of XIAP (setting [1]), 14.2 nM.

`CN[C@@H](C)C(=O)N[C@H]1CN(C(=O)CS(C)(=O)=O)c2ccccc2N(Cc2c(OC)ccc3ccccc23)C1=O` [Example 82, (S)—N—((S)-1-((2-Methoxynaphthalen-1-yl)methyl)-5-(2-(methylsulfonyl)acetyl)-2-oxo-2,3,4,5-tetrahydro-1H-benzo[b][1,4]diazepin-3-yl)-2-(methylamino)propanamide hydrochloride]: the IC50 was greater than 54800 nM on BIR3 domain of XIAP and 29 nM on BIR2 domain of XIAP (setting [1]).

For the compound `CC[C@H](NC)C(=O)NC1C(=O)N(Cc2c(OC)ccc3ccccc23)c2ccccc2N(CC23CC4CC(CC(C4)C2)C3)C1=O` (stereo partly drawn) [Example 113, (2S)-N-[5-(1-adamantylmethyl)-1-[(2-methoxynaphthalen-1-yl)methyl]-2,4-dioxo-1,5-benzodiazepin-3-yl]-2-(methylamino)butanamide], the IC50 was greater than 54800 nM at BIR3 domain of XIAP and 324 nM at BIR2 domain of XIAP (setting [1]).

As for `CC(=O)c1ccc(C(=O)N2C[C@H](NC(=O)[C@H](C)N)C(=O)N(Cc3c(OCC(F)(F)F)ccc4ccccc34)c3ccccc32)cc1` [Example 69h], the IC50 on BIR3 domain of XIAP turned out to be 30300 nM; at BIR2 domain of XIAP (setting [1]) it was 20 nM.

In the case of `CN[C@@H](C)C(=O)N[C@H]1CN(C(=O)c2ccc(F)cc2)c2cc(C#N)ccc2N(Cc2c(OC(F)F)ccc3ccccc23)C1=O` [Example 151, (S)-N-((S)-7-cyano-1-((2-(difluoromethoxy)naphthalen-1-yl)methyl)-5-(4-fluorobenzoyl)-2-oxo-2,3,4,5-tetrahydro-1H-benzo[b][1,4]diazepin-3-yl)-2-(methylamino)propanamide hydrochloride], the IC50 at BIR3 domain of XIAP turned out to be 49000 nM; on BIR2 domain of XIAP (setting [1]) it was 28.4 nM.

For `CN[C@@H](C)C(=O)N[C@H]1CN2CCNC(=O)c3ccc4c(c(OC)ccc4c3)CN(C1=O)c1ccccc12` [Example 59, Cyclic-5-[(S)-5-(2-Amino-ethyl)-3-((S)-2-methylamino-propionylamino)-2-oxo-2,3,4,5-tetrahydro-benzo[b][1,4]diazepin-1-ylmethyl]-6-methoxy-naphthalene-2-carboxylic amide hydrochloride], the figures for the concentration for half-maximal inhibition (IC50) at BIR3 domain of XIAP and at BIR2 domain of XIAP (setting [1]) were 31400 nM and 3780 nM, respectively.

For the compound `CN[C@@H](C)C(=O)N[C@H]1CN(C(=O)CCOC)c2cc(C#N)ccc2N(Cc2nn(-c3ccccc3C#N)c3ccccc23)C1=O` [Example 173, (S)-N-((S)-7-cyano-1-((1-(2-cyanophenyl)-1H-indazol-3-yl)methyl)-5-(3-methoxypropanoyl)-2-oxo-2,3,4,5-tetrahydro-1H-benzo[b][1,4]diazepin-3-yl)-2-(methylamino)propanamide hydrochloride], the concentration for half-maximal inhibition (IC50) was greater than 54800 nM on BIR3 domain of XIAP and 37.6 nM at BIR2 domain of XIAP (setting [1]).

In the case of `CN[C@@H](C)C(=O)N[C@H]1CN(C(=O)c2ccc(C(C)=O)cc2)c2ccccc2N(Cc2c(OC)ccc3cc(C(=O)O)ccc23)C1=O` [Example 44, 5-[[(3S)-1-(4-acetylbenzoyl)-3-[[(2S)-2-(methylamino)propanoyl]amino]-4-oxo-2,3-dihydro-1,5-benzodiazepin-5-yl]methyl]-6-methoxy-naphthalene-2-carboxylic acid; hydrochloride], the IC50 was 17400 nM at BIR3 domain of XIAP and 16 nM at BIR2 domain of XIAP (setting [1]).

In the case of `CN[C@@H](C)C(=O)N[C@H]1CN(C(=O)c2ccccc2[C@H](C)O)c2ccccc2N(Cc2c(C)ccc3ccccc23)C1=O` (stereo in doubt) [Example 148, (2S)-N-[(3S)-1-[2-[(1S)-1-hydroxyethyl]benzoyl]-5-[(2-methylnaphthalen-1-yl)methyl]-4-oxo-2,3-dihydro-1,5-benzodiazepin-3-yl]-2-(methylamino)propanamide;(2S)-N-[(3S)-1-[2-[(1R)-1-hydroxyethyl]benzoyl]-5-[(2-methylnaphthalen-1-yl)methyl]-4-oxo-2,3-dihydro-1,5-benzodiazepin-3-yl]-2-(methylamino)propanamide], the figures for the 50% inhibitory concentration (IC50) on BIR3 domain of XIAP and at BIR2 domain of XIAP (setting [1]) were greater than 54800 nM and 40.1 nM, respectively.

With `CN[C@@H](C)C(=O)N[C@H]1CN(C(=O)c2ccc(C(C)=O)cc2)c2ccccc2N(Cc2noc3cc(Br)ccc23)C1=O` [Example 69e], the IC50 at BIR3 domain of XIAP is 50300 nM; on BIR2 domain of XIAP (setting [1]), 49 nM.

As for `CN[C@@H](C)C(=O)N[C@H]1CN(C(C)=O)c2cc(C(F)(F)F)ccc2N(Cc2c(C3CC3)ccc3c(C#N)cccc23)C1=O` [Example 189, (S)-N-((S)-5-acetyl-1-((5-cyano-2-cyclopropylnaphthalen-1-yl)methyl)-2-oxo-7-(trifluoromethyl)-2,3,4,5-tetrahydro-1H-benzo[b][1,4]diazepin-3-yl)-2-(methylamino)propanamide], the IC50 at BIR3 domain of XIAP stood at 29300 nM; on BIR2 domain of XIAP (setting [1]), 30.4 nM.

Turning to `CN[C@@H](C)C(=O)N[C@H]1CN(C(=O)CCCC(C)=O)c2ccccc2N(Cc2c(OC)ccc3cc(C(=O)O)ccc23)C1=O` [Example 47, 6-Methoxy-5-[(S)-3 ((S)-2-methylamino-propionylamino)-2-oxo-5-(5-oxo-hexanoyl)-2,3,4,5-tetrahydro-benzo[b][1,4]diazepin-1-ylmethyl]-naphthalene-2-carboxylic acid hydrochloride], the IC50 at BIR3 domain of XIAP came out at 44600 nM; at BIR2 domain of XIAP (setting [1]) it was 20 nM.

For `CN[C@@H](C)C(=O)N[C@H]1CN(C(=O)c2ccc(N)cc2)c2ccccc2N(Cc2c(C)ccc3ccccc23)C1=O` [Example 67, (S)—N—((S)-5-(4-aminobenzoyl)-1-((2-methylnaphthalen-1-yl)methyl)-2-oxo-2,3,4,5-tetrahydro-1H-benzo[b][1,4]diazepin-3-yl)-2-(methylamino)propanamide hydrochloride], the IC50 at BIR3 domain of XIAP is greater than 54800 nM; at BIR2 domain of XIAP (setting [1]), 22 nM.

Turning to `CC[C@H](NC)C(=O)NC1C(=O)N(Cc2c(C)ccc3ccccc23)c2ccccc2N(c2ccccc2)C1=O` (stereo partly drawn) [Example 115, (2S)-2-(methylamino)-N-(1-((2-methylnaphthalen-1-yl)methyl)-2,4-dioxo-5-phenyl-2,3,4,5-tetrahydro-1H-benzo[b][1,4]diazcpin-3-yl)butanamide], the IC50 on BIR3 domain of XIAP was greater than 54800 nM; at BIR2 domain of XIAP (IC50 BIR2), 68.7 nM.

Take `CN[C@@H](C)C(=O)N[C@H]1CN(C(=O)c2ccc(C#N)cc2)c2cc(Cl)ccc2N(Cc2c(OCC(F)(F)F)ccc3cc(Br)ccc23)C1=O` [Example 135, (S)-N-((S)-1-((6-bromo-2-(2,2,2-trifluoroethoxy)naphthalen-1-yl)methyl)-7-chloro-5-(4-cyanobenzoyl)-2-oxo-2,3,4,5-tetrahydro-1H-benzo[b][1,4]diazepin-3-yl)-2-(methylamino)propanamide hydrochloride]: the IC50 on BIR3 domain of XIAP amounted to 36200 nM; on BIR2 domain of XIAP (setting [1]) it was 32 nM.

Consider `CC(=O)c1ccc(C(=O)N2C[C@H](NC(=O)[C@H](C)N)C(=O)N(Cc3c(OC(F)F)ccc4ccccc34)c3ccccc32)cc1` [Example 69i], for which the half-inhibitory concentration (IC50) on BIR3 domain of XIAP came out at 52000 nM; on BIR2 domain of XIAP (setting [1]) it was 39 nM.

As for `COc1ccc2ccccc2c1CN1C(=O)C(NC(=O)[C@H](C)N)C(=O)N(CC23CC4CC(CC(C4)C2)C3)c2ccccc21` (stereo partly drawn) [Example 111, (2S)-N-[5-(1-adamantylmethyl)-1-[(2-methoxynaphthalen-1-yl)methyl]-2,4-dioxo-1,5-benzodiazepin-3-yl]-2-aminopropanamide], the IC50 on BIR3 domain of XIAP is greater than 54800 nM; at BIR2 domain of XIAP (setting [1]), 295 nM.

With `CN[C@@H](C)C(=O)NC1C(=O)N(Cc2c(C)ccc3ccccc23)c2ccccc2N(c2ccccc2)C1=O` (stereo partly drawn) [Example 116, (2S)-2-(methylamino)-N-(1-((2-methylnaphthalen-1-yl)methyl)-2,4-dioxo-5-phenyl-2,3,4,5-tetrahydro-1H-benzo[b][1,4]diazepin-3-yl)propanamide], the half-inhibitory concentration (IC50) is greater than 54800 nM on BIR3 domain of XIAP and 39.8 nM at BIR2 domain of XIAP (IC50 BIR2).

Regarding `CN[C@@H](C)C(=O)N[C@H]1CN(C(=O)c2ccc(NC(C)=O)cc2)c2ccccc2N(Cc2c(OC)ccc3cc(Br)ccc23)C1=O` [Example 76d], the values for the IC50 at BIR3 domain of XIAP and at BIR2 domain of XIAP (setting [1]) were 33200 nM and 5 nM, respectively.

For the compound `CN[C@@H](C)C(=O)N[C@H]1CN(C(=O)c2ccc(C#N)cc2)c2ccccc2N(Cc2c(C)ccc3ccccc23)C1=O` [Example 96d], the half-inhibitory concentration (IC50) on BIR3 domain of XIAP is greater than 54800 nM; at BIR2 domain of XIAP (setting [1]), 46 nM.
